Source: US20210316010A1, “DRUG DELIVERY PRODUCT, COMPOSITION AND SYSTEM” (MASTER DYNAMIC LIMITED, priority 2018, published 2021)

Legend:
SAS MCTS = assay: Penetration and distribution in SAS multicellular tumor spheroids (MCTS), confocal microscopy; format: cell-based, Human; settings: after 1 day of incubation
Method: In order to investigate the penetration of DOX with different formulations (ND-DOX and ND-HSA-DOX) in tissue model in vitro, SAS MCTS were used to incubate with ND, free DOX, ND-DOX and ND-HSA-DOX.
The ND and DOX with different formulations complex uptake and distribution in SAS MCTS model was monitored by using CLSM.
The cell nuclei were stained with Hoechst […] which emits blue fluorescence (440 nm-484 nm), cell membrane were dyed with 3,3′-dipentyloxacarbocyanine iodide (DIOC'5), and the signal was collected in the 520-555 nm range, shown in red color.
In order to promote the multicellular tumor spheroids (MCTS) formation, SAS cells were seeded in Gravity TRAP ULA Plate, by Insphero, at a density of 5,000 cells per well and cultured at 37° C. with 5% CO2 for 3 days before drug treatment.
For the distributions of ND, DOX, ND-DOX and ND-HSA-DOX within MCTS were determined by confocal laser microscopy.
SAS MCTS were treated with ND, DOX, ND-DOX and ND-HSA-DOX for 4 days. Each day, one of treatment MCTS was harvested and fixed with 3.7% formaldehyde for 24 h. Washing the MCTS 3 time with PBS, and MCTS was incubated with DIOC'5 for 24 h. After washing 3 times, Hoechst 33342 was incubated with MCTS for 24 h. Then MCTS was observed by confocal microscopy.

SAS cells = assay: Monolayer 2D SAS cellular uptake, confocal laser scanning microscopy; format: cell-based, Human; settings: 4 hrs incubation, DOX 20 μg/ml
Excerpt: Intracellular trafficking and distribution of DOX within SAS cells were used to further investigate the outcomes, by using confocal laser scanning microscopy (CLSM), as shown in the images of FIGS. 21 and 21I.
The 50 nm ND fluorescence was excited with 488 nm, and collected in range 500-515 nm. The ND's fluorescence in this range corresponds predominantly to emission from diamond H^3 defect centers with emission peak near 505 nm, shown as green colour 206. The bright fields as evidenced, were also provided to reveal the morphologies of SAS cells.
Human Oral Squamous Carcinoma cell (SAS) cells were cultured in DMEM medium (Gibco, Invitrogen, UK). The medium was supplemented with 2 mM L-glutamine (Invitrogen, USA), 1.5 g/L sodium bicarbonate (Sigma, UK), 10% fetal bovine serum (Gibco/Life Technologies, Carlsbad, Calif., USA).
Cells were maintained under standard cell culture conditions in an incubator (Galaxy 170S, Eppendorf, USA) containing 95% air and 5% CO2 at 37° C. humid environment.
Culture medium was replaced with a fresh medium every 48 or 72 hr. […]
Unreacted samples were removed by washing. […] The emission of DOX was absorbed at 570-590 nm and ND was detected at 500-515 nm.

HeLa cells = settings: treatment for 5 h; cited from earlier work

## COc1cccc2c1C(=O)c1c(O)c3c(c(O)c1C2=O)C[C@@](O)(C(=O)CO)C[C@@H]3O[C@H]1C[C@H](N)[C@H](O)[C@H](C)O1.Cl [DOX, doxorubicin hydrochloride]
SAS MCTS
  penetration in SAS MCTS: limited to the outer cell layers
SAS cells
  intracellular distribution of DOX: distributed on cytoplasm
HeLa cells
  intracellular location of DOX: located in nuclear of HeLa cells
